Experimental data reported in patent publication US7465789B2, “Adenosine receptor” (Schering Corporation, priority 2001, dated 2008).

How the values were obtained:
[1] = target: T1, SP166 (Homo sapiens, UniProt Q9BXA5, L244P); experiment: FLIPR intracellular Ca++ flux assay in BAF/3 cells stably transfected with SP166; assay type: cell-based
T1 construct: expressed in transfected cells; host or cells: BAF/3 (murine IL-3 dependent B-cell line), retroviral transduction, G418 selection
T1 sequence (Q9BXA5 1-334 L244P): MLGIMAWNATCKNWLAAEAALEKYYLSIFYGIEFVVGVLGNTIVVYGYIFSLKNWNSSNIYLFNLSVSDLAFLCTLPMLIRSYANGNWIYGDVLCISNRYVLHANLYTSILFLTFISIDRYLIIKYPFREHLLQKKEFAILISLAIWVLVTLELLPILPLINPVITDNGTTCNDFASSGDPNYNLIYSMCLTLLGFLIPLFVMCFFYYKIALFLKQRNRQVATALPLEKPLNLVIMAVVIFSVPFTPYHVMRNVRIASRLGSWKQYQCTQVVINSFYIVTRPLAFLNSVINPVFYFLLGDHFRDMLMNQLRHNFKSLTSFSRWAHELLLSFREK

[2] = target: T1, SP166; experiment: Radioligand saturation and competition binding assay with [3H]-NECA on membranes of cells transfected with SP166; settings: radioligand saturation and competition assays
Description: Membrane preparation: Cells transfected with SP166 as described above were harvested by incubating in 5 mM EDTA/phosphate-buffered saline followed by repeated pipetting. The cells were centrifuged 5 min at 1000×g. The EDTA/PBS was decanted and an equal volume of ice-cold 50 mM Tris-HCl, pH 7.5, was added and cells were broken up with a Polytron (PT10 tip, setting 5, 30 sec). Nuclei and unbroken cells were sedimented at 1000×g for 10 min and then the supernatant was centrifuged at 50,000×g for 10 min. The supernatant was decanted, the pellet was resuspended by Polytron, a sample was taken for protein assay (bicinchoninic acid, Pierce), and the tissue was again centrifuged at 50,000×g. Pellets were stored frozen at […].
Binding assay: For saturation binding, four concentrations of [^3H]-NECA were incubated without and with 10^−5 M adenosine in triplicate with 50 ug of membrane protein in a total volume of 200 μl of 50 mM Tris-HCl, pH 7.5, for 30 min at 30° C. Samples were filtered on GF/B filters and washed thrice with 2 ml of cold Tris buffer. Filters were dried in a microwave oven, impregnated with Meltilex wax scintillant, and counted at 45% efficiency. For competition binding assays, five concentrations of compounds were incubated in triplicate with 18 nM [^3H]NECA and 70 μg of membrane protein under the conditions described above. […]

[3] = test system: mock transfected cells; experiment: FLIPR intracellular Ca++ flux assay in mock transfected cells
Description: To generate stable transfectants, full-length expression constructs were made in the murine IL-3 dependent B-cell line, BAF/3. Human SP166 was cloned into the retroviral vector, pMX-CD8-myc with 5′ EcoR1 and 3′ Not1 sites. […] To generate high-titer retroviral stock, the ecotropic packaging line BOSC 23 was used as described (Onishi, et al. 1996). Culture supernatants from these cells, containing viral particles, were used to infect BAF/3 cells. Transfectants underwent selection with 1 mg/ml G418 and were further enriched by fluorescence-activated cell sorting and single cell cloning using anti-myc antibody to the N-terminal myc tag.
For the assay, growth media was removed and replaced with medium containing RPMI, 10% FBS, and 1 mM Fluo3-AM (Sigma) (dissolved in 10% pluronic acid in DMSO). […] 50,000 cells in a volume of 100 ml were added to the plates, and the plates were placed into a Fluorescent Imaging Plate Reader (FLIPR, Molecular Devices) equilibrated to 37° C. In the FLIPR, changes in intracellular [Ca^++] levels were measured by excitation of Fluo3 fluorescence at 488 nm while fluorescence output was monitored at 500-560 nm. Fluorescence was monitored once per second for 1 minute, and every 6 seconds for 2 minutes thereafter. […] Values extracted for data analysis represented the maximal fluorescence value minus the minimal fluorescence value detected following, the drug addition. […]

Row | Compound | activation of SP166 (change in intracellular Ca++) ([1]; naturally occurring nucleotides and nucleosides examined, SP166-transfected BAF/3 cells) | binding to the cloned receptor [2] | activation by adenosine in mock transfected cells [3] | activation of SP166 by adenosine analogs [1]
1 | Nc1ncnc2c1ncn2[C@@H]1O[C@H](CO)[C@@H](O)[C@H]1O [adenosine] | specifically activated | able to bind | not observed | –
2 | (R)α-methyladenosine | – | – | – | able to activate
3 | (S)α-methyladenosine | – | – | – | inactive
4 | Nα-methyladenosine | – | – | – | able to activate
